Measurements published in publication PMC11874007, “Switching Roles—Exploring Concentration-Dependent Agonistic versus Antagonistic Behavior of Integrin Ligands” (Journal of Medicinal Chemistry, 2025).

How the values were obtained:
[1] = test system: FAK, p-FAK, p44/42erk-1/2, p-p44/42erk-1/2 in αvβ3+ M21 cells; experiment: Western blot of FAK and p44/42erk-1/2 expression and activation, M21 cells; type: cell-based
Method: (§1) Since agonistic ligand performance requires integrin activation and signaling, by Western blot analysis, we studied whether the different ligands alter the expression levels and activation states of FAK and p44/42^(erk-1/2). For this, the respective target integrin-expressing tumor cell types were incubated with the corresponding subtype-selective ligand at a concentration of 1 μM for 24 h (Figure 8). […] Signal intensities of FAK and p44/42^(erk-1/2) expression and activation (p-FAK and p-p44/42^(erk-1/2)) on Western blots were evaluated by densitometry. Data are depicted as GAPDH-normalized fluorescence signal intensities as n-fold, by setting values obtained for the respective untreated cells to “1”. […] MAPK p44/42^(erk-1/2) expression was approximately 2.2-fold augmented, p44/42^(erk-1/2) by approximately 2.5-fold. It also raised activation of p-FAK and p-p44/42^(erk-1/2) by approximately 2.2-fold and 3.1-fold, respectively, in α5β1+ OV-MZ-6 cells. […] Additionally, it raised FAK (approximately 1.7-fold) and p-p44/42^(erk-1/2) (approximately 2.4-fold) in α5β1+ OV-MZ-6 cells.
(§2) Figure 8 Effects of ligands on cellular expression and activation of integrin-related signaling molecules FAK and p44/42^(erk-1/2). […] Signal intensities for FAK and p-FAK, respectively, were evaluated by use of the Bio-Rad Imager Gel Doc XR+ and a ChemiDoc XRS+ Systems and the software Image Lab. Shown are typical representative Western blot images and the corresponding histograms depicting GAPDH-normalized signal intensities as n-fold by setting the values obtained for untreated cells to “1” (drawn as black line). For each cell line, cutouts of identical gels are depicted.
(§3) In order to capture early and transient changes in signaling activation following ligand treatment, we next reduced the observation periods to 5, 30, or 60 min and assessed FAK expression and activation. […] Depicted are typical Western blot images and the corresponding densitometrical evaluations of GAPDH-normalized signal intensities as n-fold, by setting that of the respective untreated cell type to “1” (Figure 9). […]
(§4) The kinases (p-)p44/42^(erk-1/2) and (p-)FAK were detected as previously published.[15],[8] Briefly, cells were grown for 18 h on six-well plates in DMEM (0.45 Mio cells/well). After medium exchange, fresh medium with L1–L5 (concentration: 1.0 μM, 2 mL/well) was added, and cells were incubated for another 24 h at 37 °C. In a second series, cells were incubated with L1–L5 (1 μM or 1 nM) for 5, 30, or 60 min. Thereafter, the cellular proteins were extracted and processed by Western blotting. Proteins were visualized using the Pierce ECL chemiluminescent substrate (Thermo Fisher Scientific). Band signal intensities for (p-)p44/42^(erk-1/2) and (p-)FAK were evaluated using the Bio-Rad Imager Gel Doc XR + and ChemiDoc XRS + Systems and the software Image Lab. Differences in protein loading and blotting efficiency were normalized by reprobing the membranes with a monoclonal antibody directed to GAPDH. Signal intensities for protein bands of interest were normalized to those recorded for GAPDH. Typical Western blot images are depicted together with histograms summarizing the mean values of normalized fluorescence signal intensities as n-fold, by setting those obtained for untreated cells to “1”.

[2] = test system: FAK, p-FAK, p44/42erk-1/2, p-p44/42erk-1/2 in α5β1+ OV-MZ-6 cells; experiment: Western blot of FAK and p44/42erk-1/2 expression and activation, OV-MZ-6 cells; type: cell-based; conditions: for p-FAK, transient elevation, n-fold of untreated cells: concentration not specified
Method: as §1, §2, §3, §4

[3] = test system: αvβ3+ M21 cells; experiment: Wound scratch cell migration assay, M21 cells; type: cell-based
Method: (§5) As a biological readout for integrin signaling, we analyzed ligand effects on cell adhesion and migration by wound scratch assays (Figure 10A,B). […] Microscopical images were taken directly after wounding the cell monolayers and then after 9, 24, 48, and 72 h, respectively.
(§6) Figure 10 (A) Effect of integrin ligands on cancer cell migration. […] Microscopical measurements of wound gaps were taken directly after setting the wound scratch and then after 9, 24, 48, and 72 h, respectively. Wound scratch assays were repeated at least three times. The extent of wound gap closure [%]/cell coverage was calculated by a python script utilizing Canny’s Edge Detection algorithm as described under Materials and summarized in the corresponding histograms (see also Scheme S5 in the Supporting Information). (B) Adhesion of M21, OV-MZ-6, and HN cells in the presence of the respective integrin targeting ligand at low (1 nM) and high (1 μM) concentrations. […] Depicted are typical microscopical images of the respective cell monolayers.
(§7) The assays were performed according to a modified protocol as previously published.[94] Cells were cultivated on fibronectin-coated 12-well cell culture plates until cell monolayers reached an approximately 80% confluency. Then, the wound scratch was set utilizing a 200 μL pipet tip. Subsequently, fresh culture medium was added in the absence or presence of L1–L5 (concentration: 1 μM or 1 nM), and microscopical images (Zeiss, Oberkochen, Germany) were taken at two identical positions of the wound gap directly after wounding and then at 9, 24, 48, or 72 h of further cell cultivation. Each wound scratch assay was repeated three times. A custom python script was implemented to analyze wound gap closure over time: after cropping the images, we used the OpenCV[95] implementation of Canny’s Edge Detection Algorithm[96] to ensure reliable measurements even with variable lighting conditions.[97] As a first step, a 5 × 5 Gaussian filter was applied to remove background noise. The smoothened images were then filtered by a Sobel kernel[98] and the magnitude and direction of the intensity gradient of the images calculated. Then, a non-maximum suppression algorithm was applied to identify relevant pixels that presumably contribute to edges. In a final step, threshold hysteresis was utilized to distinguish true edges from variations in intensity or the remaining background noise. The resulting images were then segmented and binarized by use of a grid filter and analyzed with respect to cell-covered area relative to the start image of each series.

[4] = target: T1, human αvβ3-integrin (Homo sapiens, UniProt P05106+P06756); experiment: ELISA-type solid-phase binding assay: soluble αvβ3 competing for immobilized vitronectin; conditions: competitive ELISA-type assay, referenced to internal standard cilengitide (L2)
T1 construct: purchased R&D 3050-AV-050

[5] = test system: α5β1+ OV-MZ-6 cells; experiment: Wound scratch cell migration assay, OV-MZ-6 cells; type: cell-based; conditions: for Effect on wound gap closure / cell migration: OV-MZ-6 cells
Method: as §5, §6, §7
Scheme S5. Effect of integrin ligands on cancer cell migration (control cells to Fig. 10A in the main manuscript). a) Integrin αvβ3- OV-MZ-6 cells, α5β1- M21 cells, α5β1+ and αvβ3- and […]
mages of wound gaps were taken directly after setting the wound scratch and then after […], respectively. Wound scratch assays were repeated at least 3 times. The extent of wound gap closure [%]/cell coverage was calculated by a python script utilizing Canny’s Edge Detection algorithm11 as described in the Experimental Section and summarized in the corresponding histograms.
(1 picture or pasted object on this page, not shown here)

[6] = concentration not specified or both, within 60 min

## C#CCCC(=O)NCCCOc1cc(C)c(C(=O)N[C@@H](CNC(=O)CNC(=O)c2cccc(NC(=N)N)c2)C(=O)O)c(C)c1 [L5, (S)-2-(2,6-Dimethyl-4-(3-(pent-4-ynamido)propoxy)benzamido)-3-(2-(3-guanidinobenzamido)acetamido)propanoic Acid]
[1]; 1 μM, 24 h
  (p-)p-44/42erk-1/2: unexpectedly increased
[1]; both concentrations (1 nM, 1 μM), up to 60 min
  p-FAK levels versus untreated cells: equal or slightly higher than those in untreated cells
[2]; 1 nM, 5, 30 or 60 min
  FAK levels, n-fold of untreated cells: approximately 1.6 fold
  p-FAK, highest or initial elevation, n-fold of untreated cells: approximately threefold
[2]; 1 μM
  p-FAK, highest induction at 30 min, n-fold of untreated cells: approximately fourfold
[2]; 1 μM, 5, 30 or 60 min
  FAK expression versus untreated cells: equal to or only slightly higher than that in untreated cells
[2]; 1 μM, 24 h
  (p-)FAK and (p-)p-44/42erk-1/2: did not modulate
[3]; 1 nM
  Effect on wound gap closure / cell migration: did not alter their migratory capacity
[3]; 1 μM
  Effect on wound gap closure / cell migration: no abrogation of cell migration was observed
[4]
  IC50: > 1000 nM
[5]; 1 nM
  Effect on wound gap closure / cell migration: did not alter their migratory capacity
[5]; 1 μM
  Effect on wound gap closure / cell migration: blocked migration

## C#CCCC(=O)NCCCOc1ccc(C(=O)N[C@H](CC(=O)O)Cc2ccc(OCCCNc3cc(OC)ccn3)cc2)cc1 [L1, (S)-4-(4-(3-((4-Methoxypyridin-2-yl)amino)propoxy)phenyl)-3-(4-(3-(pent-4-ynamido)propoxy)benzamido)butanoic Acid]
[1]; 1 nM, 5, 30 or 60 min
  FAK expression versus untreated cells: transient and slight increase
  p-FAK expression: always prominently higher than that at 1 μM
[1]; 1 μM, 5, 30 or 60 min
  FAK expression versus untreated cells: remained below that in untreated cells
[1]; 1 μM, 24 h, GAPDH-normalized
  FAK expression, n-fold of untreated cells: doubled
  p-FAK expression, n-fold of untreated cells: slightly reduced
[2]; 1 μM, 24 h, GAPDH-normalized
  FAK, n-fold of untreated cells: approximately 1.7 fold
  p-p44/42erk-1/2, n-fold of untreated cells: approximately 2.4 fold
[2]; [6]
  FAK expression versus untreated cells: transient slight increase
[2]; within 60 min
  p-FAK, transient elevation, n-fold of untreated cells: approximately twofold
[3]; 1 nM
  Effect on wound gap closure / cell migration: enhanced wound gap closure
[3]; 1 μM
  Effect on wound gap closure / cell migration: less effective than cilengitide (L2) in blocking cell migration
[3]; 1 μM, within 72 h
  Cell coverage (wound gap closure): approximately 80%
[4]
  IC50: 1.1 ± 0.27 nM
[5]; 1 nM
  Effect on wound gap closure / cell migration: not observed
[5]; 1 μM
  Effect on wound gap closure / cell migration: more efficient blockade of cell migration than in M21 cells

## c(FRGDLAFp(NMe)K) [L3]
[2]; [6]
  FAK expression versus untreated cells: no effect
[2]; within 60 min
  p-FAK, transient elevation, n-fold of untreated cells: approximately 2.9 fold
[5]; αvβ6- OV-MZ-6 cells, concentration not specified
  Effect on wound gap closure: delayed wound gap closure
